Here are results for 19 compounds from US10899769B2, “Imidazopiperazinone inhibitors of transcription activating proteins” (Board of Regents, The University of Texas System, priority 2018, dated 2021).

Assay [1] has as its target GST-CBP(1081-1197) bromodomain (Homo sapiens (Human), UniProt Q92793). Nature of the assay: CBP AlphaScreen Assay. As to conditions: binding to biotin-H4(1-21) Ac-K5/8/12/16. The gist of the method: (§1)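 AlphaScreen binding of GST-bromodomain to biotin-H4(1-21) Ac-K5/8/12/16: 5 nM CBP with 20 nM peptide, or 2.5 nM BRD4 with 10 nM peptide, in 50 mM HEPES 7.5, […], 1 mM TCEP, 0.003% Tween-20. Compound preincubated 30 min, then beads 2 h, room temperature. IC50 from variable-slope fit.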
In general terms: Alpha assays give light when donor and acceptor beads are brought close together.

Assay [2] has as its target BRD4(49-170) bromodomain (Homo sapiens (Human), UniProt O60885). Put plainly: BRD4 AlphaScreen Assay. Conditions: binding to biotin-H4(1-21) Ac-K5/8/12/16. The essentials: as §1

As usually defined, the IC50 is the concentration at which inhibition is half-maximal.

Chain of GST-CBP(1081-1197) bromodomain (Q92793 1081-1197): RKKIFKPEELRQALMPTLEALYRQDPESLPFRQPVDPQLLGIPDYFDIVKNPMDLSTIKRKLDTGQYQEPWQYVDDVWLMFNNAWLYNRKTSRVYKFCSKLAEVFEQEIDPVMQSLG

In the case of `C[C@@H]1C(=O)N(C)Cc2c(-c3cccc4nc(-c5ccn(C)n5)c(C(F)F)cc34)nc(C3CCOCC3)n21` [Example 89a, (R)-1-(3-(difluoromethyl)-2-(1-methyl-1H-pyrazol-3-yl)quinolin-5-yl)-5,7-dimethyl-3-(tetrahydro-2H-pyran-4-yl)-7,8-dihydroimidazo[1,5-a] pyrazin-6(5H)-one], the IC50 was 1 nM in assay [1] and 0.101 µM in assay [2].

In the case of `C[C@H]1C(=O)N(C)Cc2c(-c3cccc4nc(-c5ccn(C)n5)c(C(F)F)cc34)nc(C3CCOCC3)n21` [Example 89b, (S)-1-(3-(difluoromethyl)-2-(1-methyl-1H-pyrazol-3-yl)quinolin-5-yl)-5,7-dimethyl-3-(tetrahydro-2H-pyran-4-yl)-7,8-dihydroimidazo[1,5-a] pyrazin-6(5H)-one], the IC50 was 482 nM in assay [1] and 20.8 µM in assay [2].

With `CN1Cc2c(-c3cccc4nc(-c5cnn(C)c5)c(C#N)cc34)nc(C3CCOCC3)n2CC1=O` [Example 92, 2-(1-methyl-1H-pyrazol-4-yl)-5-(7-methyl-6-oxo-3-(tetrahydro-2H-pyran-4-yl)-5,6,7,8-tetrahydroimidazo[1,5-a]pyrazin-1-yl)quinoline-3-carbonitrile], the IC50 was 63 nM in assay [1] and 25 µM in assay [2].

Take `CN1Cc2c(-c3cccc4nc(-c5cnn(C)c5)c(C(F)F)cc34)nc(C3CCOCC3)n2CC1=O` [Example 93, 1-(3-(difluoromethyl)-2-(1-methyl-1H-pyrazol-4-yl)quinolin-5-yl)-7-methyl-3-(tetrahydro-2H-pyran-4-yl)-7,8-dihydroimidazo [1,5-a] pyrazin-6(5H)-one]: the IC50 in assay [1] turned out to be 357 nM; in assay [2], 25 µM.

On to `CN1Cc2c(-c3cccc4cc(N5CCOCC5)ncc34)nc(C3CCOCC3)n2CC1=O` [Example 94, 7-methyl-1-(3-morpholinoisoquinolin-8-yl)-3-(tetrahydro-2H-pyran-4-yl)-7,8-dihydroimidazo[1,5-a] pyrazin-6(5H)-one], for which the IC50 in assay [1] is 145 nM; in assay [2], at least 25 µM.

As for `CN1Cc2c(-c3cccc4nc(-c5cnn(C)c5)c(C(F)(F)F)cc34)nc(C3CCOCC3)n2CC1=O` [Example 95, 7-methyl-1-(2-(1-methyl-1H-pyrazol-4-yl)-3-(trifluoromethyl)quinolin-5-yl)-3-(tetrahydro-2H-pyran-4-yl)-7,8-dihydroimidazo[1,5-a] pyrazin-6(5H)-one], the IC50 in assay [1] came to 31 nM; in assay [2], 10.6 µM.

`Cc1nn(C)cc1-c1cc2cccc(-c3nc(C4CCOCC4)n4c3CN(C)C(=O)C4)c2cn1` [Example 96, 1-(3-(1,3-dimethyl-1H-pyrazol-4-yl)isoquinolin-8-yl)-7-methyl-3-(tetrahydro-2H-pyran-4-yl)-7,8-dihydroimidazo[1,5-a] pyrazin-6(5H)-one]: the IC50 was 181 nM in assay [1] and 12.6 µM in assay [2].

As for `Cc1nn(C)cc1-c1cc2ccc(F)c(-c3nc(C4CCOCC4)n4c3CN(C)C(=O)C4)c2cn1` [Example 97, 1-(3-(1,3-dimethyl-1H-pyrazol-4-yl)-7-fluoroisoquinolin-8-yl)-7-methyl-3-(tetrahydro-2H-pyran-4-yl)-7,8-dihydroimidazo[1,5-a] pyrazin-6(5H)-one], the IC50 in assay [1] was 323 nM; in assay [2], 25 µM.

For `CN1Cc2c(-c3cccc4cc(C5CCOCC5)ncc34)nc(C3CCOCC3)n2CC1=O` [Example 99, 7-methyl-3-(tetrahydro-2H-pyran-4-yl)-1-(3-(tetrahydro-2H-pyran-4-yl)isoquinolin-8-yl)-7,8-dihydroimidazo[1,5-a] pyrazin-6(5H)-one], the 50% inhibitory concentration (IC50) worked out at 45 nM in assay [1] and 18.1 µM in assay [2].

As to `CN1Cc2c(-c3c(F)ccc4cc(C5CCOCC5)ncc34)nc(C3CCOCC3)n2CC1=O` [Example 101, 1-(7-fluoro-3-(tetrahydro-2H-pyran-4-yl)isoquinolin-8-yl)-7-methyl-3-(tetrahydro-2H-pyran-4-yl)-7,8-dihydroimidazo[1,5-a] pyrazin-6(5H)-one], the 50% inhibitory concentration (IC50) in assay [1] was determined as 219 nM; in assay [2], 25 µM.

As for `Cc1ccc2cc(-c3ccn(C)n3)ncc2c1-c1nc(C2CCOCC2)n2c1CN(C)C(=O)C2C` (centres unmarked) [Example 105, 5,7-dimethyl-1-(7-methyl-3-(1-methyl-1H-pyrazol-3-yl)isoquinolin-8-yl)-3-(tetrahydro-2H-pyran-4-yl)-7,8-dihydroimidazo[1,5-a] pyrazin-6(5H)-one], the IC50 in assay [1] was found to be 27 nM; in assay [2], 3.48 µM.

Regarding `CN1Cc2c(N3CCCc4cc(-c5cnn(C)c5)c(C(F)F)cc43)nc(C3CC3)n2CC1=O` [Example 106, 3-cyclopropyl-1-(7-(difluoromethyl)-6-(1-methyl-1H-pyrazol-4-yl)-3,4-dihydroquinolin-1(2H)-yl)-7-methyl-7,8-dihydroimidazo[1,5-a] pyrazin-6(5H)-one], the IC50 in assay [1] stood at 9 nM; in assay [2] it was 5.7 µM.

In the case of `CN1Cc2c(-c3ccc4c(c3)c(-c3cnn(C)c3)nn4C)nc(C3CC3)n2CC1=O` [Example 107, 3-cyclopropyl-7-methyl-1-(1-methyl-3-(1-methyl-1H-pyrazol-4-yl)-1H-indazol-5-yl)-7,8-dihydroimidazo [1,5-a] pyrazin-6(5H)-one], the IC50 in assay [1] amounted to 29 nM; in assay [2], 6.82 µM.

As for `CN1Cc2c(-c3cccc4nc(-c5cnn(C)c5)c(C(F)F)cc34)nc(C3CC3)n2CC1=O` [Example 108, 3-cyclopropyl-1-(3-(difluoromethyl)-2-(1-methyl-1H-pyrazol-4-yl)quinolin-5-yl)-7-methyl-7,8-dihydroimidazo[1,5-a] pyrazin-6(5H)-one], the IC50 in assay [1] came to 114 nM; in assay [2], 18.3 µM.

Regarding `CC1C(=O)N(C)Cc2c(-c3cccc4cc(-c5cnn(C)c5)ncc34)nc(C3CCOCC3)n21` (centres unmarked) [Example 109, 5,7-dimethyl-1-(3-(1-methyl-1H-pyrazol-4-yl)isoquinolin-8-yl)-3-(tetrahydro-2H-pyran-4-yl)-7,8-dihydroimidazo[1,5-a] pyrazin-6(5H)-one], the IC50 in assay [1] came to 2 nM; in assay [2] it was 0.341 µM.

With `C[C@H]1C(=O)N(C)Cc2c(-c3cccc4nc(-c5cnn(C)c5)c(C(F)F)cc34)nc(C3CC3)n21` [Example 110a, (S)-3-cyclopropyl-1-(3 (difluoromethyl)-2-(1-methyl-1H-pyrazol-4-yl)quinolin-5-yl)-5,7-dimethyl-7,8-dihydroimidazo[1,5-a] pyrazin-6(5H)-one], the IC50 amounted to 453 nM in assay [1] and 9.25 µM in assay [2].

With `C[C@@H]1C(=O)N(C)Cc2c(-c3cccc4nc(-c5cnn(C)c5)c(C(F)F)cc34)nc(C3CC3)n21` [Example 110b, (R)-3-cyclopropyl-1-(3 (difluoromethyl)-2-(1-methyl-1H-pyrazol-4-yl)quinolin-5-yl)-5,7-dimethyl-7,8-dihydroimidazo[1,5-a] pyrazin-6(5H)-one], the IC50 stood at 1 nM in assay [1] and 0.407 µM in assay [2].

With `C[C@H]1C(=O)N(C)Cc2c(-c3cccc4cc(-c5cnn(C)c5)ncc34)nc(C3CC3)n21` [Example 111a, (S)-3-cyclopropyl-5,7-dimethyl-1-(3-(1-methyl-1H-pyrazol-4-yl)isoquinolin-8-yl)-7,8-dihydroimidazo[1,5-a] pyrazin-6(5H)-one], the IC50 in assay [1] was determined as 510 nM; in assay [2] it was 25 µM.

`C[C@@H]1C(=O)N(C)Cc2c(-c3cccc4cc(-c5cnn(C)c5)ncc34)nc(C3CC3)n21` [Example 111b, (R)-3-cyclopropyl-5,7-dimethyl-1-(3-(1-methyl-1H-pyrazol-4-yl)isoquinolin-8-yl)-7,8-dihydroimidazo[1,5-a] pyrazin-6(5H)-one]: the IC50 came out at 1 nM in assay [1] and 0.089 µM in assay [2].
